Experimental data as given in patent EP1077967B1, “BIPHENYL OXO-ACETIC ACIDS USEFUL IN THE TREATMENT OF INSULIN RESISTANCE AND HYPERGLYCEMIA” (Wyeth, priority 1998, dated 1999).
Counter-ions that a name gives are not always drawn. Like-named read-outs stand apart in the source and are kept apart here.

Key:
[1] = test system: rat hepatic microsomal PTPases; test: Inhibition of tri-phosphorylated insulin receptor dodecaphosphopeptide dephosphorylation by rat hepatic PTPases (malachite green); type: biochemical; details: rat liver microsomal fraction; for % Change from Control: PTPase activity, compound at 50 µM; for IC50: % Change from Control
[2] = biological target: T1, Human recombinant PTP1B (Homo sapiens, UniProt P18031); test: Inhibition of tri-phosphorylated insulin receptor dodecaphosphopeptide dephosphorylation by hPTP1B (malachite green); type: biochemical; details: for IC50: recombinant PTP1B, dodecaphosphopeptide substrate; for change of PTP1B activity (percent of phosphatase control) / inhibition at 2.5 µM: compound at 2.5 uM; for inhibition at 2.5 µM: read-out: change of PTP1B activity (percent of phosphatase control)
T1 construct: made in house
T1 sequence (P18031 1-435): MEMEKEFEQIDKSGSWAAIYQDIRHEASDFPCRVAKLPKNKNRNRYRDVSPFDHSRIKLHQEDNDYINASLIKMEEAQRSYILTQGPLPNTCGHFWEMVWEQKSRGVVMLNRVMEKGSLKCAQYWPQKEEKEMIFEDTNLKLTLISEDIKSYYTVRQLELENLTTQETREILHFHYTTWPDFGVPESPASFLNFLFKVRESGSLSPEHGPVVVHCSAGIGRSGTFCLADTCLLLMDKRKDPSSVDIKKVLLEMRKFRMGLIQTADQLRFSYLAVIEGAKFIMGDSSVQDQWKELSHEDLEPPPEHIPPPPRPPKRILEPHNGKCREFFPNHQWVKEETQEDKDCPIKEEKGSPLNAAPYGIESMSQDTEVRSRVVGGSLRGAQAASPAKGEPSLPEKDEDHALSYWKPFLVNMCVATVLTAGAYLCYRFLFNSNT

[3] = test system: diabetic (ob/ob) mice; test: Blood glucose lowering in diabetic (ob/ob) mice; type: in vivo; details: Mus musculus, po, cells marked a = no significant activity (p<0.05) at this dose
[4] = read-out: % Change Insulin from Vehicle
[5] = plasma glucose, read-out: % Change Glucose from Vehicle

Row | Compound | % Change from Control [1] | IC50 [2] | IC50 [1] | other results
1 | O=C(O)[C@H](Cc1ccccc1)Oc1ccc(-c2ccc(-c3c(Cc4ccccc4)oc4ccccc34)cc2)cc1 [Example 1, (2S)-2-[4'-(2-Benzyl-benzofuran-3-yl)-biphenyl-4-yloxy]-3-phenyl-propionic acid] | -53% | 0.322 µM | – | change in vivo at 100 mg/kg [3, 4]: 17%; change in vivo at 100 mg/kg [3, 5]: -40.3%
2 | COc1ccc(-c2cc(-c3ccc(-c4c(Cc5ccccc5)sc5ccccc45)cc3)cc(-c3ccc(OC)cc3)c2OCC(=O)O)cc1 [Example 2] | – | 0.025 µM | 28.4 µM | change in vivo at 25 mg/kg [3, 4]: 11.2%; change in vivo at 25 mg/kg [3, 5]: -25.5%
3 | COc1ccc(-c2cc(-c3ccc(-c4c(Cc5ccccc5)sc5ccccc45)cc3)cc(Br)c2OCC(=O)O)cc1 [Example 3] | – | 0.029 µM | 29.9 µM | change in vivo at 25 mg/kg [3, 4]: 23.5%; change in vivo at 25 mg/kg [3, 5]: -29.9%
4 | O=C(O)COc1ccc(-c2ccc(-c3coc4ccccc34)cc2)cc1 [Example 4, (4'-Benzofuran-3-yl-biphenyl-4-yloxy)-acetic acid] | -11% | – | – | change of PTP1B activity (percent of phosphatase control) [2]: -51 (2.5 uM)
5 | O=C(O)C(Cc1ccccc1)Oc1ccc(-c2ccc(-c3coc4ccccc34)cc2)cc1 (stereo not drawn) [Example 5, 2-(4'-Benzofuran-3-yl-biphenyl-4-yloxy)-3-phenyl-propionic acid] | -70% | – | – | change of PTP1B activity (percent of phosphatase control) [2]: -47 (2.5 uM)
6 | O=C(O)COc1ccc(-c2ccc(-c3c(Br)oc4ccccc34)cc2)cc1 [Example 6, [4'-(2-Bromo-benzofuran-3-yl)-biphenyl-4-yloxy]-acetic acid] | -71% | – | – | inhibition at 2.5 µM [2]: 15%
7 | O=C(O)C(Cc1ccccc1)Oc1ccc(-c2ccc(-c3c(Br)oc4ccccc34)cc2)cc1 (stereo not drawn) [Example 7, 2-[4'-(2-Bromo-benzofuran-3-yl)-biphenyl-4-yloxy]-3-phenyl-propionic acid] | -73% | – | – | inhibition at 2.5 µM [2]: 58%
8 | CCCCc1oc2ccccc2c1-c1ccc(-c2ccc(O)cc2)cc1 [Example 8, 4'-(2-Butyl-benzofuran-3-yl)-biphenyl-4-ol] | -28% | 0.74 µM | – | –
9 | CCCCc1oc2ccccc2c1-c1ccc(-c2ccc(OCC(=O)O)cc2)cc1 [Example 9, [4'-(2-Butyl-benzofuran-3-yl)-biphenyl-4-yloxy]-acetic acid] | -75% | 2.19 µM | – | –
10 | O=C(O)C(Cc1ccccc1)Oc1ccc(-c2ccc(-c3c(Cc4ccccc4)sc4ccccc34)cc2)cc1 (stereo not drawn) [Example 13, 2-[4'-(2-Benzyl-benzo[b]thiophen-3-yl)-biphenyl-4-yloxy]-3-phenyl-propionic acid] | -50% | – | – | change in vivo at 100 mg/kg [3, 4]: 5%; change in vivo at 100 mg/kg [3, 5]: -36.7%
11 | O=C(c1ccccc1)c1oc2ccccc2c1-c1ccc(-c2ccc(OC(Cc3ccccc3)C(=O)O)cc2)cc1 (stereo not drawn) [Example 14] | -55% | – | – | change in vivo at 100 mg/kg [3, 5]: -39%
12 | O=C(O)[C@H](Cc1ccccc1)Oc1ccc(-c2ccc(-c3c(Cc4ccccc4)oc4ccccc34)cc2)cc1 [Example 16, (2S)-2-[4'-(2-Benzyl-benzofuran-3-yl)-biphenyl-4-yloxy]-3-phenyl-propionic acid tromethamine salt] | -53% | 0.397 µM | – | –
13 | O=C(O)[C@H](Oc1ccc(-c2ccc(-c3c(Cc4ccccc4)oc4ccccc34)cc2)cc1)c1ccccc1 [Example 18, (2R)-2-[4'-(2-Benzyl-benzofuran-3-yl)-biphenyl-4-yloxy]-phenyl-acetic acid] | – | 0.401 µM | 24.2 µM | –
14 | COc1ccc(Cc2sc3ccccc3c2-c2ccc(-c3ccc(O[C@H](Cc4ccccc4)C(=O)O)cc3)cc2)cc1 [Example 20] | – | – | 41.6 µM | –
15 | CCCCc1sc2ccccc2c1-c1ccc(-c2ccc(OC(C(=O)O)c3ccccc3)cc2)cc1 (stereo not drawn) [Example 21, [4'-(2-Butyl-benzo[b]thiophene-3-yl)-biphenyl-4-yloxy]-phenyl-acetic acid] | – | 0.118 µM | 35.5 µM | –
16 | O=C(O)[C@@H](Cc1ccccc1)Oc1ccc(-c2ccc(-c3c(C(O)c4ccccc4)oc4ccccc34)cc2)cc1 (stereo partly drawn) [Example 22, (2R)-2-{4'-[2-(Hydroxy-phenyl-methyl)-benzofuran-3-yl)-biphenyl-4-yloxy]-3-phenyl-propionic acid] | -55% | 0.118 µM | – | –
17 | CC(Cc1ccccc1)(Oc1ccc(-c2ccc(-c3c(Cc4ccccc4)oc4ccccc34)cc2)cc1)C(=O)O (stereo not drawn) [Example 24, 2-[4'-(2-Benzyl-benzofuran-3-yl)-biphenyl-4-yloxy]-2-methyl-3-phenyl-propionic acid] | – | 0.293 µM | – | change in vivo at 25 mg/kg [3, 5]: -30.5%
18 | COc1ccc(Cc2sc3ccccc3c2-c2ccc(-c3ccc(O[C@H](Cc4ccccc4)C(=O)O)cc3)cc2)cc1OC [Example 25, (2R)-2-{4'-[2-(3,4-Dimethoxy-benzyl)-benzo[b]thiophen-3-yl]-biphenyl-4-yloxy}-3-phenyl-propionic acid] | – | 0.213 µM | 17.9 µM | –
19 | COc1ccc(Cc2sc3ccccc3c2-c2ccc(-c3ccc(O[C@H](Cc4ccccc4)C(=O)O)cc3)cc2)c(OC)c1 [Example 26, (2R)-2-{4'-[2-(2,4-Dimethoxy-benzyl)-benzo[b]thiophen-3-yl]-biphenyl-4-yloxy}-3-phenyl-propionic acid] | – | 0.085 µM | 20 µM | –
20 | CC1(C)Oc2ccc(Cc3sc4ccccc4c3-c3ccc(-c4ccc(O[C@H](Cc5ccccc5)C(=O)O)cc4)cc3)cc2O1 [Example 27, (2R) 2-{4'-[2-(2,2-Dimethyl-benzo[1,3]dioxol-5-ylmethyl)-benzo[b]thiophene-3-yl)-biphenyl-4-yloxy]-3-phenyl-propionic acid] | – | 0.077 µM | 24.9 µM | –
21 | O=C(O)[C@@H](Cc1ccccc1)Oc1ccc(-c2ccc(-c3ccsc3Cc3ccccc3)cc2)cc1 [Example 29, (2R)-2-[4'-(2-Benzyl-thiophene-3-yl)-biphenyl-4-yloxy]-3-phenyl-propionic acid] | -19% | 0.97 µM | – | –
22 | O=C(O)[C@@H](Cc1ccccc1)Oc1ccc(-c2ccc(-c3c(Cc4ccccc4)sc4ccccc34)cc2)cc1Br [Example 36, (2R)-2-[4'-(2-Benzyl-benzo[b]thiophene-3-yl)-3-bromo-biphenyl-4-yloxy]-3-phenyl-propionic acid] | – | 0.058 µM | 17.9 µM | –
23 | O=C(O)[C@@H](Cc1ccccc1)Oc1c(Br)cc(-c2ccc(-c3c(Cc4ccccc4)sc4ccccc34)cc2)cc1Br [Example 37, (2R)-2-[4'-(2-Benzyl-benzo[b]thiophene-3-yl)-3,5-dibromo-biphenyl-4-yloxy]-3-phenyl-propionic acid] | – | 0.025 µM | 36.8 µM | –
24 | COc1ccc(-c2cc(-c3ccc(-c4c(Cc5ccccc5)sc5ccccc45)cc3)ccc2O[C@H](Cc2ccccc2)C(=O)O)cc1 [Example 38, (2R)-2-[4-(2-Benzyl-benzo[b]thiophene-3-yl)-4"-methoxy-[1,1';3',1"]terphenyl-4'-yloxy]-3-phenvl-propionic acid] | – | 0.053 µM | 19.3 µM | –
25 | O=C(O)CCCOc1ccc(-c2ccc(-c3c(Cc4ccccc4)sc4ccccc34)cc2)cc1Br [Example 42] | – | 0.178 µM | – | change in vivo at 25 mg/kg [3, 4]: 9.9%; change in vivo at 25 mg/kg [3, 5]: -10.6%
26 | O=C(O)[C@@H](CCN1C(=O)c2ccccc2C1=O)Oc1ccc(-c2ccc(-c3c(Cc4ccccc4)oc4ccccc34)cc2)cc1 [Example 48, (2R)-2-[4'-(2-benzyl-benzofuran-3-yl)-biphenyl-4-yloxy]-4-(1,3-dioxo-1,3-dihydro-isoindol-2-yl)-butyric acid] | – | 0.341 µM | – | change in vivo at 25 mg/kg [3, 4]: -30%; change in vivo at 25 mg/kg [3, 5]: 4.7%
27 | COc1ccc(-c2cc(-c3ccc(-c4c(Cc5ccccc5)oc5ccccc45)cc3)ccc2O[C@@H](Cc2ccccc2)C(=O)O)cc1 [Example 55, (2S)-2-[4-(2-benzyl-benzofuran-3-yl)-4"-methoxy-[1,1';3',1'']terphenyl-4'-yloxy]-3-phenyl-propionic acid] | – | 0.043 µM | – | change in vivo at 25 mg/kg [3, 4]: 35.4%; change in vivo at 25 mg/kg [3, 5]: -13.6%
28 | O=C(O)[C@H](Cc1ccccc1)Oc1ccc(-c2ccc(-c3nc4ccccc4n3Cc3ccccc3)cc2)cc1 [Example 70, (2S)-2-[4'-(1-Benzyl-1H-benzimidazol-2-yl)-biphenyl-4-yloxy]-3-phenyl-propionic acid] | – | – | – | inhibition at 2.5 µM [2]: 41%
29 | CC(=O)c1ccc(-c2ccc(-c3ccc(O[C@@H](Cc4ccccc4)C(=O)O)cc3)cc2)s1 [Example 71, (2S)-2-[4'-(5-acetyl-thiophen-2-yl)-biphenyl-4-yloxy]-3-phenyl-propionic acid sodium salt] | – | – | – | inhibition at 2.5 µM [2]: 43%
30 | Ammonium molybdate tetrahydrate [reference compound] | – | 8.7 µM | – | –
